Read-outs that look alike come from different tables or passages of the source. Ends that are not written are not given here.
How the values were obtained:
RAW cells = test: RAW cell viability by Trypan blue exclusion; type: cell-based; conditions: up to 50 μg peptide
[1] = tested on: LPS-induced TNF in RAW 264.7 macrophage cells; test: Inhibition of LPS-induced TNF in RAW 264.7 macrophages (L929 cytotoxic assay); type: cell-based, mouse; conditions: for depression of TNF induction by aspirated medium containing peptide: fresh RAW cells
Procedure: RAW 264.7 macrophage cells were grown by seeding 10^6 cells into a 162 cm^2 cell culture flask and incubated at 37° C., 5% CO2 for 1 week. RAW cell media [(Dulbecco's Modified Eagle Medium with Hepes buffer 450 ml; 2.4 mML-glutamine 3 ml (400 mM); Pen/Strep 3 ml (10^4 U/ml of Pen, 1 mg/ml strep); and 10% heat inactivated fetal bovine serum (FBS) 50 ml)] was then completely removed from flasks. 10 mls of cell dissociation solution (Sigma) was added to each flask and inc; bated at 37° C. for 10 minutes. Cells were removed from flasks, diluted in RAW cell media and centrifuged for 6 minutes. The cell pellet was resuspended in 5 ml of media/flask used, 100 μl cell suspension was removed and added to 400 μl of trypan blue and cells were counted using a hemocytometer. The cell suspension was diluted to 1×10^6 cells/ml and 1 ml of suspension was added per well of a 24 well plate. The 24 well plates were incubated at 37° C., 5% CO2 overnight for use in the assay.
After an overnight incubation, the media was aspirated from all the wells. 100 μl of Lipopolysaccharide (LPS) was added at 100 ng/100 μl. CEME, CEMA or MBI 29 was added at the desired concentration/100 μl to specified wells. […] The plates were then incubated for six hours at 37° C., 5% CO2. The supernatant was then removed from the wells and stored overnight at 4° C. For those wells in which whole bacteria were added directly to the wells, the supernatant was centrifuged in 0.2 μm filter eppendorf tubes for 5 minutes.
The supernatants were then used in cell cytotoxic L929 assay. The samples were transferred to 96 well plates. 50 μl of TNF media was added to all the wells in all the plates except to those wells in the first row. 10 μl of murine TNF standard (20 ng/ml) and 90 μl of TNF media was added in duplicate to the plate and diluted 1:2 down the plate to the second to last row. Test samples (75 μl), comprising the supernatants from the RAW cell assays, were added to separate rows in duplicate and diluted 1:3 to the second to last rows.
TNF-sensitive L929 mouse fibroblast cells were grown by seeding 10^6 cells into a 162 cm^2 cell culture flask and left to grow for 1 week. L929 cells were removed from the flask with 10 mls of trypsin-EDTA/flask and incubated 3-5 minutes. Cell suspension was diluted and centrifuged for 6 minutes. The pellet was resuspended in 5 mls of fresh L929 media/flask and counted (same as RAW cells). Cell suspension was diluted to 10^6 cells/ml. 100 μl was used to inoculate each well of the 96 well plates with the supernatants. (L929 Growth Media was the same as RAW cell media except instead of FBS, 50 mls of 10% heat inactivated horse serum was utilized; TNF Assay Media was the same as RAW cell media except 4 μg/ml Actinomycin D was added.)
The plates were incubated at 37° C. at 5% CO2 for 2 days. The media was then aspirated and replaced with 100 μl of the dye MTT (0.5 mg/ml) in modified Eagle Medium without phenol red. The plates were then incubated at 37° C. at 5% CO2 for 3 hours. The dye was then removed and replaced with 100 μl of absolute ethanol. […]
The plates were read at 570 nm in a ELISA plate reader with 690 nm reference filter. […]
TNF levels were measured six hours after the addition of E. coli 0111:B4 or E. coli Bort LPS (FIGS. 5a, 5b, 5c and FIGS. 6a and 6c as labeled). […]
In order to determine how rapidly the cationic peptides reduced LPS-induced TNF production, E. coli 0111:B4 was added at time 0 to RAW macrophages. […] Levels of TNF were measured after 6 hours. […]

P. aeruginosa [2] = test: Effect of formulation on bactericidal activity (killing, survivors over time); type: cell-based
Procedure: (§1) Effect of formulation on bactericidal activity and MIC was determined using the test solutions listed below.

E. facaelis = E. facaelis (C625)
Procedure: as §1
(§2) The media used in this experiment was Cation Adjusted Muller Hinton (CAMHB), and CAMHB +8 mM citrate.

S. typhimurium = S. typhimurium (C610)
Procedure: as §1, §2

P. aeruginosa [3] = conditions: P. aeruginosa (H103)
Procedure: as §1, §2

Procedure for A. calcoacet.: as §1, §2
Procedure for E. cloacae: as §1, §2
Procedure for E. coli: as §1, §2

CC[C@H](C)[C@H](NC(=O)[C@H](CC(C)C)NC(=O)[C@H](C)NC(=O)[C@@H]1CCCN1C(=O)[C@H](CC(C)C)NC(=O)CNC(=O)[C@@H](NC(=O)[C@@H](NC(=O)[C@H](CC(C)C)NC(=O)[C@@H](NC(=O)[C@H](CCCCN)NC(=O)[C@H](CCCCN)NC(=O)[C@@H](NC(=O)[C@H](C)NC(=O)[C@@H](NC(=O)[C@@H](NC(=O)[C@H](CC(C)C)NC(=O)[C@H](CCCCN)NC(=O)[C@H](CCCCN)NC(=O)[C@@H](NC(=O)[C@H](Cc1ccccc1)NC(=O)[C@H](CO)NC(=O)[C@H](CCCCN)NC(=O)[C@H](Cc1c[nH]c2ccccc12)NC(=O)[C@@H](N)CCCCN)[C@@H](C)CC)[C@@H](C)O)[C@@H](C)O)C(C)C)C(C)C)[C@@H](C)O)[C@@H](C)O)C(=O)N[C@@H](CO)C(=O)O [MBI 29]
RAW cell viability (RAW cells): no apparent decrease | TNF induction in RAW cells preincubated with peptide and washed ([1]; 20 μg peptide 60 minutes, washed 3 times, then 10 ng or 100 ng LPS): 14,000-20,000 Units of TNF per ml | inhibition of TNF induction by LPS ([1]; E. coli 0111:B4 at time 0, peptide added at 0, 30 and 60 minutes, TNF after 6 hours): inhibited TNF induction by LPS in a similar manner to polymyxin B | reduction of LPS-induced TNF when added after LPS ([1]; added 60 minutes after the addition of LPS): effective | depression of TNF induction by aspirated medium containing peptide ([1]; 10 ng E. coli LPS): 98.5% | depression of TNF induction by aspirated medium containing peptide ([1]; 100 ng E. coli LPS): 75%

KWKSFIKKLTSAAKKVVTTAKPLISS [MBI 26]
Survivors at Time (min.) (P. aeruginosa [2]; Citrate (0.129 M) +Ascorbic Acid (100 mM), MBI 26 10 MG/ML, 0 min): 1.3 × 10^7 | Survivors at Time (min.) (P. aeruginosa [2]; Citrate (0.129 M) +Ascorbic Acid (100 mM), MBI 26 10 MG/ML, 15 min): 0 | Survivors at Time (min.) (P. aeruginosa [2]; Citrate (0.129 M) +Ascorbic Acid (100 mM), MBI 26 10 MG/ML, 30 min): 0 | Survivors at Time (min.) (P. aeruginosa [2]; Citrate (0.129 M) +Ascorbic Acid (100 mM), MBI 26 10 MG/ML, 60 min): 0 | Survivors at Time (min.) (P. aeruginosa [2]; Citrate (0.129 M), MBI 26 10 MG/ML, 0 min): 1.1 × 10^7 | Survivors at Time (min.) (P. aeruginosa [2]; Citrate (0.129 M), MBI 26 10 MG/ML, 15 min): 0 | Survivors at Time (min.) (P. aeruginosa [2]; Citrate (0.129 M), MBI 26 10 MG/ML, 30 min): 0 | Survivors at Time (min.) (P. aeruginosa [2]; Citrate (0.129 M), MBI 26 10 MG/ML, 60 min): 0 | Survivors at Time (min.) (P. aeruginosa [2]; Citrate-Dextrose, MBI 26 10 MG/ML, 0 min): 9 × 10^6 | Survivors at Time (min.) (P. aeruginosa [2]; Citrate-Dextrose, MBI 26 10 MG/ML, 15 min): 20 | Survivors at Time (min.) (P. aeruginosa [2]; Citrate-Dextrose, MBI 26 10 MG/ML, 30 min): 0 | Survivors at Time (min.) (P. aeruginosa [2]; Citrate-Dextrose, MBI 26 10 MG/ML, 60 min): 0 | Survivors at Time (min.) (P. aeruginosa [2]; Citrate-Phosphate Dextrose, MBI 26 10 MG/ML, 0 min): 0 | Survivors at Time (min.) (P. aeruginosa [2]; Citrate-Phosphate Dextrose, MBI 26 10 MG/ML, 30 min): 0 | Survivors at Time (min.) (P. aeruginosa [2]; Citrate-Phosphate Dextrose, MBI 26 10 MG/ML, 60 min): 0 | Survivors at Time (min.) (P. aeruginosa [2]; Dextran, MBI 26 (20 μg), 0 min): 1.9 × 10^7 | Survivors at Time (min.) (P. aeruginosa [2]; Dextran, MBI 26 (20 μg), 15 min): 1.2 × 10^6 | Survivors at Time (min.) (P. aeruginosa [2]; Dextran, MBI 26 (20 μg), 30 min): 1 × 10^6 | Survivors at Time (min.) (P. aeruginosa [2]; Dextran, MBI 26 (20 μg), 60 min): 8.5 × 10^5 | MIC (E. facaelis; CAMHB): 16 µg/mL | MIC (E. facaelis; CAMHB + Citrate (8 mM)): >32 µg/mL | MIC (S. typhimurium; CAMHB): 8 µg/mL | MIC (S. typhimurium; CAMHB + Citrate (8 mM)): 2 µg/mL | MIC (E. cloacae; E. cloacae (C601), CAMHB): 8 µg/mL | MIC (E. cloacae; E. cloacae (C601), CAMHB + Citrate (8 mM)): 4 µg/mL | MIC (E. cloacae; E. cloacae (C602), CAMHB): 8 µg/mL | MIC (E. cloacae; E. cloacae (C602), CAMHB + Citrate (8 mM)): 4 µg/mL | MIC (E. cloacae; E. cloacae (C603), CAMHB): 4 µg/mL | MIC (E. cloacae; E. cloacae (C603), CAMHB + Citrate (8 mM)): 2 µg/mL | MIC (P. aeruginosa [3]; CAMHB): 16 µg/mL | MIC (P. aeruginosa [3]; CAMHB + Citrate (8 mM)): 2 µg/mL | MIC (E. coli; E. coli (111:B4), CAMHB): 8 µg/mL | MIC (E. coli; E. coli (111:B4), CAMHB + Citrate (8 mM)): 2 µg/mL | MIC (E. coli; E. coli (Bort), CAMHB): 16 µg/mL | MIC (E. coli; E. coli (Bort), CAMHB + Citrate (8 mM)): 8 µg/mL | MIC (E. coli; E. coli (UB 1005), CAMHB): 4 µg/mL | MIC (E. coli; E. coli (UB 1005), CAMHB + Citrate (8 mM)): 2 µg/mL | MIC (A. calcoacet.; A. calcoacet (C403), CAMHB): 1 µg/mL | MIC (A. calcoacet.; A. calcoacet (C403), CAMHB + Citrate (8 mM)): 1 µg/mL | MIC (A. calcoacet.; A. calcoacet. (C402), CAMHB): 8 µg/mL | MIC (A. calcoacet.; A. calcoacet. (C402), CAMHB + Citrate (8 mM)): 4 µg/mL

Reference: patent US6906035B2, “Antimicrobial cationic peptides” (priority 1995, dated 2005)
